From BindingDB's records for patent US11208411 (The Regents of the University of California; Washington …, 2021)

Target: Proto-oncogene tyrosine-protein kinase Src (Homo sapiens, UniProt P12931)
Experiment: Expression and Purification of Active Kinases

Proto-oncogene tyrosine-protein kinase Src, sequence (P12931 2-536 limits assumed): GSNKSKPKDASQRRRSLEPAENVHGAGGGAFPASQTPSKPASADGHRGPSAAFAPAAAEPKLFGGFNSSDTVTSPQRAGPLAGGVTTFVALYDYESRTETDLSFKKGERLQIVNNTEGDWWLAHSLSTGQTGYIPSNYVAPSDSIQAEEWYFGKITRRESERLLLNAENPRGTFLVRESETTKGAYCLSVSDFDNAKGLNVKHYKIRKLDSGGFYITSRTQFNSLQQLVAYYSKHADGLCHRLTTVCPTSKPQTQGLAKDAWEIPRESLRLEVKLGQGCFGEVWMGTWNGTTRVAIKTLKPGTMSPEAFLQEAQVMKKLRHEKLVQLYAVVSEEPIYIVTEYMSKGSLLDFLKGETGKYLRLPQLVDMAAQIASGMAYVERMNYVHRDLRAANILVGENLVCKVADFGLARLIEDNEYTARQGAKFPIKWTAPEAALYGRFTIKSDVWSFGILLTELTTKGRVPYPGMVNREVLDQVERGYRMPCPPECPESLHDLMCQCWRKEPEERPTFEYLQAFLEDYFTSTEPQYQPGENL

- IC50: 1.57 µM
SMILES: CC(C)(C)n1nc(Cc2coc3ccccc23)c2c(N)ncnc21 [US11208411, Cmpd LJQ-145]
